Patent publication US20110296540A1, “ASSAY FOR SCREENING ANTIDEPRESSANTS” (priority 2008, published 2011)
Read-outs that look alike come from different tables or passages of the source.

Key:
C57BL/6Ntac mice [1] = system: C57BL/6Ntac mice
Text: The novelty suppressed feeding paradigm (NSF) is a conflict test that elicits competing motivations: the drive to eat and the fear of venturing into the center of brightly lit arena. […] Briefly, the testing apparatus consisted of a plastic box (50×50×20 cm), the floor of which was covered with approximately 2 cm of wooden bedding. Twenty-four hours prior to behavioral testing, all food was removed from the home cage. At the time of testing, a single pellet of food (regular chow) was placed on a white paper platform positioned in the center of the box. An animal was placed in a corner of the box, and a stopwatch was immediately started. The latency to eat (defined as the mouse sitting on its haunches and biting the pellet with the use of forepaws) was timed. Immediately afterwards, the animal was transferred to its home cage, and the amount of food consumed by the mouse in the subsequent 5 min was measured, serving as a control for change in appetite as a possible confounding factor. Each mouse was weighed before food deprivation and before testing to assess the percentage of body weight loss (data not shown).
Mice were anesthetized with ketamine and xylazine (100 mg/ml ketamine; 20 mg/ml xylazine), placed in a stereotaxic frame and exposed to cranial irradiation using a Siemens Stabilopan X-ray system operated at 300 kVp and 20 mA. […] Dosimetry was done using a Capintec Model PR06G electrometer ionization chamber and Kodak Readypack Radiographic XV films. The corrected dose rate was approximately 1.8 Gy per min at a source to skin distance of 30 cm. The procedure lasted 2 min and 47 sec, delivering a total of 5 Gy. Three 5 Gy doses were delivered on days 1, 4 and 8.

[2] = system: dentate gyrus of the adult mouse hippocampus; test: BrdU labeling for proliferation and survival study, corticosterone model
Procedure: After anesthesia with ketamine (100 mg/kg), mice were perfused transcardially (cold saline for 2 min, followed by 4% cold paraformaldehyde at 4° C.). […] For DAB staining, sections were mounted on slides and boiled in citric acid (pH 6.0) for 5 min, rinsed with PBS, and treated with 0.01% trypsin in Tris/CaCl2 for 10 min. Brain sections were incubated for 30 min with 2N HCl and blocked with 5% NGS. Sections were then incubated overnight at room temperature with anti-mouse BrdU (1:100). After washing with PBS, sections were incubated for 1 hr with secondary antibody (1:200 biotinylated goat anti-mouse) followed by amplification with an avidinbiotin complex. The staining was visualized with DAB.

C57BL/6Ntac mice [3] = test: Changes in coat state
C57BL/6Ntac mice [4] = test: Splash test (grooming); assay type: in vivo; settings: corticosterone, without or with 3 weeks of fluoxetine 18 mg/kg/day; mean±SEM
Procedure: This test consisted in squirting 200 ul of a 10% sucrose solution on the mouse's snout. The grooming duration and grooming frequency were then recorded.

Creb-1 gene = system: Creb-1 gene
Procedure: (§1) Tissue preparation: Animals were sacrificed by cervical dislocation. Selected brain regions were dissected and placed in tubes containing RNAlater (Ambion), incubated at 4 degrees C. overnight and stored at −80 degrees C. until processing.
(§2) Brain regions (10-20 mg) were homogenized for 20 sec at medium speed in 1.25 ml lysis/denaturation buffer (Ambion) using an Autogizer™ (Tomtec). Total RNA was isolated from 100-300 ul aliquots of the homogenate using the RNAqueous™ 96 automated kit (Ambion) according to the manufacturer's protocol. A second DNase I digestion was incorporated after elution of the RNA from the Ambion filter plate to remove residual genomic DNA. Digestion was performed for 1 hr at room temperature using DNase I™ (Invitrogen) and the buffer supplied with the enzyme. After inactivation of the DNase with EDTA and heat, the RNA was desalted with a Multiscreen™ filter plate (Millipore) and stored at −80° C. Conversion of total RNA into first strand cDNA was accomplished with Superscript II™ enzyme (Invitrogen) followed by desalting over a Multiscreen plate. Approximately 1 ug of total RNA was used for each cDNA reaction. The yield of cDNA was determined using Quant-iT Oligreen™ reagent (Invitrogen). Prior to the Oligreen assay, total RNA carried over from the cDNA reaction was hydrolyzed with NaOH and heat, followed by neutralization with Tris buffer. This treatment eliminates any contribution of the RNA to the Oligreen signal. The unknown cDNA samples were compared to a standard curve derived using a 18mer oligonucleotide. Replica cDNA plates containing 3 ng of cDNA per well were prepared using an Evolution P3™ workstation (PerkinElmer). Each animal in a given experiment was represented by one well on each plate and each plate always contained the control and treatment groups.
(§3) Quantitative PCR (qPCR) was carried out in 25 ul reactions using Full Velocity™ enzyme (Stratagene). Plates were run on either a Stratagene MX3000P™ or an Applied Biosystems 7900 HT instrument. The cycling parameters were set based on recommendations from the enzyme manufacturer. One gene expression profile was analyzed per PCR plate and duplicate plates were run for each gene. Two housekeeping genes, cyclophilin and GAPDH, were included in the gene list and were used to normalize the expression results obtained from the other genes of interest (see data analysis section). The sequences of the primers and probes for each gene are listed in supplemental table 1. Duplicate cycle thresholds (Ct values) were obtained for each gene/region and averaged. The values for cyclophilin and GAPDH were combined and used to normalize the expression values from the other genes by employing the delta Ct method. After converting delta Ct values to percentage, the mean and SEM of each animal group (controls and experimental) was calculated.
(§4) Tissue preparation, RNA extraction, DNA preparation and qPCR analysis were described in the materials and methods section. Data analysis and statistics Results from data analyses were expressed as mean±SEM. Data were analyzed using StatView 5.0 software (SAS Institute, Cary, N.C.).

[5] = system: mineralocorticoid receptor
Procedure: as §1, §2, §3, §4

Giα2 = settings: hypothalamus
Procedure: as §1, §2
as §3, with “The values for cyclophilin and GAPDH were combined and used to normalize the expression values from the other genes by employing the delta Ct method.” left out

β-arrestin 2 = system: β-arrestin 2
Procedure: as §1, §2
as §3, with “The values for cyclophilin and GAPDH were combined and used to normalize the expression values from the other genes by employing the delta Ct method.” left out

β-arrestin 1 = settings: hypothalamus
Procedure: as §1, §2
as §3, with “The values for cyclophilin and GAPDH were combined and used to normalize the expression values from the other genes by employing the delta Ct method.” left out

[6] = system: doublecortin positive cells; test: Doublecortin (DCX) labeling for maturation index study, corticosterone model; assay type: in vivo, mice
Text: The secondary antibody was biotinylated donkey anti-goat (1:500) (Jackson ImmunoResearch, West Grove, Pa.) in PBS for 2 hr at room temperature. Sections were developed using avidin-biotin complex (Vector, USA) and DAB kit.

1A-High and 1A-Low mice = test: Novelty-suppressed feeding paradigm in 1A-High and 1A-Low mice; assay type: in vivo; settings: twenty-five days, 18 mg/kg/day p.o.
Text: The NSF paradigm is a test of hyponeophagia that measures the latency of a mouse to consume food placed in the middle of a brightly lit, aversive arena.

C57BL/6Ntac mice [7] = test: Open Field paradigm, chronic corticosterone model; assay type: in vivo
Text: The procedure described previously was used (Dulawa et al., 2004). Motor activity was quantified in four Plexiglas open field boxes 43 times 43 cm2 (MED Associates, Georgia, Vt.). Two sets of 16 pulse-modulated infrared photobeams were placed on opposite walls 2.5-cm apart to record x-y ambulatory movements. Activity chambers were computer interfaced for data sampling at 100-ms resolution. The computer defined grid lines that divided each Open Field into center and surround regions, with each of four lines being 11 cm from each wall. Dependent measures in the center were the total time and the number of entries over a 30-min period of test. The whole session was also divided in […] to analyze the time spent in the center every 5 min. The overall motor activity was quantified as the total distance traveled (cm) or distance traveled in the center divided by total distance traveled.
Mice were anesthetized with ketamine and xylazine (100 mg/ml ketamine; 20 mg/ml xylazine), placed in a stereotaxic frame and exposed to cranial irradiation using a Siemens Stabilopan X-ray system operated at 300 kVp and 20 mA. Animals were protected with a lead shield that covered the entire body, but left unshielded a 3.22×11-mm treatment field above the hippocampus (interaural 3.00 to 0.00) exposed to X-Ray. Dosimetry was done using a Capintec Model PR06G electrometer ionization chamber and Kodak Readypack Radiographic XV films. The corrected dose rate was approximately 1.8 Gy per min at a source to skin distance of 30 cm. The procedure lasted 2 min and 47 sec, delivering a total of 5 Gy. Three 5 Gy doses were delivered on days 1, 4 and 8.

[8] = in the presence of corticosterone, compared with controls

## CNCCC(Oc1ccc(C(F)(F)F)cc1)c1ccccc1 (stereo not shown) [fluoxetine]
C57BL/6Ntac mice [1]; after hippocampal irradiation, chronic corticosterone
  effects of fluoxetine to reverse the anxiety/depressive-like state in the NSF paradigm: completely abolished
C57BL/6Ntac mice [1]; chronic fluoxetine 18 or imipramine 40 mg/kg/day in corticosterone-treated mice
  corticosterone-induced change in the latency to feed (NSF): reversed
C57BL/6Ntac mice [1]; irradiated corticosterone/fluoxetine group
  latency to feed (NSF): 546.2 s
C57BL/6Ntac mice [1]; sham corticosterone/fluoxetine group
  latency to feed (NSF): 371.3 s
[2]; 3 weeks of fluoxetine 18 mg/kg/day
  change in cell proliferation induced by corticosterone: completely reversed
[2]; [8]
  effect of fluoxetine on survival: even more pronounced
[2]; non-corticosterone treated C57BL/6Ntac mice, chronic fluoxetine
  hippocampal cell proliferation: did not affect
C57BL/6Ntac mice [3]; 3 week fluoxetine regimen
  deterioration of the coat state induced by chronic corticosterone: reversed
C57BL/6Ntac mice [3]; chronic corticosterone, without or with 3 week fluoxetine, mean±SEM
  coat state total score (sum of five body parts): 1.80±0.08
C57BL/6Ntac mice [4]
  grooming duration (splash test): 99.8 s
  grooming frequency (splash test): 9±1
Creb-1 gene; amygdala
  Creb-1 gene expression: unchanged
Creb-1 gene; hippocampus
  Creb-1 gene expression: unchanged
Creb-1 gene; hypothalamus
  Creb-1 gene expression: unchanged
[5]; amygdala
  mineralocorticoid receptor expression: unchanged
[5]; hippocampus
  mineralocorticoid receptor expression: unchanged
[5]; hypothalamus
  mineralocorticoid receptor expression: unchanged
Giα2
  Giα2 expression: totally reversed
β-arrestin 2; hippocampus, fluoxetine
  β-arrestin 2 levels: opposite effect
β-arrestin 2; hypothalamus, fluoxetine in corticosterone-treated mice
  β-arrestin 2 expression: reversed
β-arrestin 1
  β-arrestin 1 expression: totally reversed
[6]; chronic fluoxetine, control animals
  number of doublecortin positive cells with tertiary dendrites: increased
[6]; [8]
  effect of fluoxetine on the number of doublecortin positive cells and their dendritic morphology: even more pronounced
1A-High and 1A-Low mice; 1A-High mice
  latency to feed (NSF), response to fluoxetine: no response
1A-High and 1A-Low mice; 1A-Low mice
  latency to feed (NSF), response to fluoxetine: responded robustly
C57BL/6Ntac mice [7]; 3-week antidepressant treatment in corticosterone-treated mice, imipramine 40, fluoxetine 18 mg/kg/day
  corticosterone-induced anxiety phenotype in the Open Field (time and entries in the center): reversed
C57BL/6Ntac mice [7]; chronic corticosterone, with or without chronic fluoxetine
  ambulatory distance (Open Field): abolished
C57BL/6Ntac mice [7]; chronic fluoxetine, regardless of X-irradiation
  corticosterone-induced decrease of Open Field center parameters: reversed
